Experiment: xn = mol fraction of the nth substance listed

C=CC#N + CN(C)C=O
303.15 K, 101.3 kPa
Conditions	viscosity [mPa·s]
x1 = 0.099	0.7313
x1 = 0.2027	0.6911
x1 = 0.2977	0.6444
x1 = 0.4005	0.5998
x1 = 0.497	0.5516
x1 = 0.5957	0.5028
x1 = 0.6984	0.4518
x1 = 0.798	0.4041
x1 = 0.895	0.3581

CCCCC(C)O (stereo not drawn) + CN(C)C=O
viscosity [mPa·s], 101 kPa
Conditions	x2 = 0.1088	x2 = 0.1532	x2 = 0.2402	x2 = 0.3448	x2 = 0.441	x2 = 0.5601	x2 = 0.6546	x2 = 0.7434	x2 = 0.843	x2 = 0.9374
298.15 K	3.26	3.03	2.7	2.41	2.17	1.87	1.63	1.4	1.17	0.97
303.15 K	2.67	2.49	2.23	1.99	1.79	1.56	1.39	1.23	1.05	0.87
308.15 K	2.19	2.01	1.8	1.61	1.47	1.3	1.18	1.06	0.93	0.8
313.15 K	1.7	1.53	1.36	1.23	1.13	1.03	0.96	0.89	0.81	0.73

O=C1CCCCCO1 + CNC(C)=O
viscosity [mPa·s], 101 kPa
Conditions	x2 = 0.0922	x2 = 0.2381	x2 = 0.3459	x2 = 0.4411	x2 = 0.5823	x2 = 0.6289	x2 = 0.6641	x2 = 0.7792	x2 = 0.9465
303.15 K	4.458	3.929	3.6	3.366	3.201	3.187	3.218	3.308	3.629
308.15 K	3.994	3.609	3.358	3.162	2.962	2.921	2.912	2.895	3.062
313.15 K	3.543	3.135	2.944	2.76	2.602	2.552	2.532	2.527	2.773
318.15 K	3.182	2.761	2.616	2.479	2.372	2.33	2.348	2.349	2.453

C=CC#N + CO
viscosity [mPa·s], 101.33 kPa
Conditions	x1 = 0.1021	x1 = 0.2197	x1 = 0.302	x1 = 0.4017	x1 = 0.5035	x1 = 0.6614	x1 = 0.6991	x1 = 0.7966	x1 = 0.8985
298.15 K	0.483	0.435	0.41	0.388	0.367	0.351	0.346	0.34	0.338
303.15 K	0.453	0.41	0.387	0.367	0.354	0.337	0.329	0.325	0.322
308.15 K	0.428	0.387	0.366	0.348	0.331	0.318	0.315	0.311	0.309

CC(=O)CC(C)=O + CO
303.15 K, 101 kPa
Conditions	viscosity [mPa·s]
x1 = 0.0502	0.51
x1 = 0.1002	0.516
x1 = 0.3002	0.547
x1 = 0.5	0.579
x1 = 0.6983	0.611
x1 = 0.9004	0.645
x1 = 0.9511	0.655

CC(=O)[O-].CCCC[NH3+] + CO
101.3 kPa
Conditions	viscosity [mPa·s]
293.15 K, x1 = 0.7993	256.5
298.15 K, x1 = 0.8988	312.5

CCC(C)(C)O + CO
298.15 K, 101.33 kPa
Conditions	viscosity [mPa·s]
x2 = 0.1504	3.673
x2 = 0.2963	3.295
x2 = 0.3807	2.941
x2 = 0.4164	2.789
x2 = 0.4914	2.41
x2 = 0.6011	1.88
x2 = 0.7145	1.404
x2 = 0.7989	1.074
x2 = 0.8988	0.788

CCCCC(C)O (stereo not drawn) + CO
298.15 K, 101.33 kPa
Conditions	viscosity [mPa·s]
x2 = 0.1062	3.747
x2 = 0.2053	3.337
x2 = 0.3128	2.892
x2 = 0.412	2.43
x2 = 0.5053	2.04
x2 = 0.6071	1.647
x2 = 0.703	1.315
x2 = 0.8146	0.9858
x2 = 0.9006	0.7707

Cc1ccc(C(C)C)cc1 + CO
293.15 K, 101 kPa
Conditions	viscosity [mPa·s]
x2 = 0.2	0.799
x2 = 0.4	0.793
x2 = 0.6	0.793
x2 = 0.7	0.774
x2 = 0.8	0.732

Cn1ccnc1 + CO
viscosity [mPa·s]
Conditions	298.15 K	308.15 K	318.15 K
100 kPa, x1 = 0.0511	0.6235	0.5549	0.4923
100 kPa, x1 = 0.1008	0.7071	0.6136	0.5376
100 kPa, x1 = 0.1961	0.8597	0.7399	0.6379
100 kPa, x1 = 0.279	0.9763	0.8372	0.7265
100 kPa, x1 = 0.3965	1.159	0.9854	0.849
100 kPa, x1 = 0.5013	1.298	1.098	0.942
100 kPa, x1 = 0.6101	1.429	1.203	1.029
100 kPa, x1 = 0.6941	1.514	1.277	1.088
100 kPa, x1 = 0.7955	1.607	1.348	1.151
100 kPa, x1 = 0.8414	1.645	1.377	1.174
100 kPa, x1 = 0.9501	1.727	1.445	1.23
101 kPa, x1 = 0.0502	–	0.5358	–
101 kPa, x1 = 0.1011	–	0.5959	–
101 kPa, x1 = 0.2	–	0.7153	–
101 kPa, x1 = 0.3006	–	0.8325	–
101 kPa, x1 = 0.4	–	0.9415	–
101 kPa, x1 = 0.4999	–	1.039	–
101 kPa, x1 = 0.5999	–	1.128	–
101 kPa, x1 = 0.7002	–	1.207	–
101 kPa, x1 = 0.7985	–	1.278	–
101 kPa, x1 = 0.8958	–	1.336	–
101 kPa, x1 = 0.9433	–	1.359	–
